The values that follow come from patent US6623730B1, “Therapeutic uses of polymers and oligomers comprising gamma-hydroxybutyrate” (Tepha, Inc., priority 1999, dated 2003).

Data set [1] is described as follows: Digestibility of GHB oligomers in normal rats: serum GHB after gavage (GC-MS). The following applies: for time for serum GHB to decrease to baseline values / be absorbed and cleared from the circulation: after gavage with GHB monomer.
For data set [2] the following is noted: cited from earlier work.
The subject of data set [3] is sleep. The following applies: rat, large dose; cited from earlier work.
Where [4] appears, read: male, Sprague-Dawley, rat, serum, oral, 50 mg/kg.

In data set [1] (setting [4]), `O=C(O)CCCO` [GHB Monomer, Gamma-hydroxybutyrate] had a concentration at 0.5 h of 182 ± 158 µM, a concentration at 1 h of 23.2 ± 2.05 µM, a concentration at 2 h of 12.8 ± 2.62 µM and a concentration at 4 h of 14.9 ± 3.31 µM. Moreover, the “GHB Monomer [GHB] concentration of GHB in serum” value in data set [1] (rat serum, 0.5 hr after gavage with 50 mg/kg sodium GHB monomer in TWEEN, 50 mg/kg) worked out at 182 ± 158 µM. The “time for serum GHB to decrease to baseline values / be absorbed and cleared from the circulation” value in data set [1] (rat, listed as GHB monomer) is at most 2 h. For the same molecule, in data set [1] (rat, listed as monomer), the “time for serum GHB to decrease to baseline values / be absorbed and cleared from the circulation” value lay within 1 to 2 h. Moreover, the “time of peak plasma concentration” value in data set [2] (after oral administration) was 20 to 60 min. For the same molecule, the “half-life of GHB” value in data set [2] (in vivo) is 35 min.

As for `CCOC(=O)CCCOC(C)=O` [ethyl 4-acetoxybutanoate], the sleep duration entry in data set [3] was “four”.
